Laboratory results from patent US6815546B2, “Analogues of camptothecin, their use as medicaments and the pharmaceutical compositions containing them” (Societe de Recherches et d'Applications Scientifiques …, priority 1995, dated 2004).

Tested on: LOVO (cell lines of human colon adenocarcinoma)
Experiment: Test on cell proliferation (MTT test), LOVO
Type: cell-based
Conditions: 72 hours
Protocol: a. Eight tumoral cell lines are used in this study: L1210 (mouse lymphocytic leukemia), HCT15 and LOVO (cell lines of human colon adenocarcinoma), A549 (human lung carcinoma), A172, U373 et U87 (human glioblastoma). All these lines are obtained from the American Type Culture Collection (ATCC), Rockville, Md. The L1210 cell cultures in suspension are cultured in Dulbecco's modified Eagle's medium (DMEM) (BioWhitaker, Verviers, Belgium) together with 10% of foetal calf serum inactivated by heating, 2 mM of glutamine, 50 μg/ml of penicillin and 50 μg/ml of streptomycin. The HT29 cells are cultured in mono-layer cultures in a McCoy 5a medium (Gibco, Paisley, United Kingdom) together with 10% of foetal calf serum inactivated by heat plus 2 mM of glutamine and 50 μg/ml of gentamycin. The other cells are cultured in an Earle's modified essential medium (EMEM; Gibco, Paisley, United Kingdom) together with 5% foetal calf serum inactivated by heat, 2 mM of glutamine, 50 U/ml of penicillin and 50 μg/ml of streptomycin. All the cell lines are cultured at 37° C. in a humidified atmosphere containing 95% air and 5% CO2.
Inhibition of the tumor cell line proliferation is determined using an MTT test. 1500 L1210 cells in a culture medium (according to the needs of the cell medium) are seeded in a well of a micro-well plate (tissue culture level: 96 wells, flat bottom) 24 hours before treatment with the compounds to be tested. For these dose-response studies, the cells are incubated with each of the compounds to be tested or their corresponding solvent (controls) for 48 hours over a final concentration range of 1.10^−10 to 1.10^−4 M. All the compounds are dissolved just before use in dimethylsulphoxide (DMSO) at a concentration of 50 mM. Other dilutions of the medicaments are carried out in the culture medium. The final concentration of DMSO never exceeds 0.2% (v/v). As controls, the solutions of medicaments are replaced with the solvent which is diluted successively in the same way as the compounds to be tested.
After the incubation period, the labeling reagent MTT (3-[4,5-dimethylthiazol-2-yl]-2,5-diphenyltetrazolium bromide; Thiazol blue, Sigma M 565, Sigma, St Louis, Mo.) is added at a final concentration of 0.3 mg/ml to each well. The cells are incubated for 4 hours at 37° C. in a humidified atmosphere. This stage allows the mitochondrial dehydrogenase of the living cells to convert the yellow tetrazolium salt MTT into crimson formazan crystals. The supernatant part is eliminated and the formazan crystals formed are solubilized with DMSO. The resultant coloured solution is quantified by absorbance at 570 nm by using a multi-cuvette scanning spectrophotometer. The data concerning the proliferation is expressed as a percentage of living cells in the treated wells, divided by the living cells in the controls. Each point represents the average of three independent experiments, each experiment represents six determinations.
For the other cell lines (HCT15, LOVO, A549, A172, U373, U87), 1000 to 2000 cells are seeded in the well of a micro-well plate 24 hours before medicinal treatment. […]
The results are expressed as percentages of the calculated proliferation by the optical density (OD) of the cells treated with a medicament divided by the OD of the control cells (cells treated with DMSO). As represented in Table II, the compounds to be tested have inhibited the proliferation of cells in a dose-dependent manner.

Compound | PERCENTAGE OF CELL PROLIFERATION (0.1 nM) [%] | PERCENTAGE OF CELL PROLIFERATION (1 nM) [%] | PERCENTAGE OF CELL PROLIFERATION (10 nM) [%] | PERCENTAGE OF CELL PROLIFERATION (100 nM) [%] | PERCENTAGE OF CELL PROLIFERATION (1 000 nM) [%] | PERCENTAGE OF CELL PROLIFERATION (10 000 nM) [%] | PERCENTAGE OF CELL PROLIFERATION (100 000 nM) [%]
CCC1(O)CC(=O)OCc2c1cc1n(c2=O)Cc2cc3ccccc3nc2-1 (centres unmarked) [Example 3, 5-ethyl-5-hydroxy-1,4,5,13-tetrahydro-3H,15H-oxepino [3′,4′:6,7]indolizino[1,2-b]quinoline-3,15-dione] | 108.00 | 86.00 | 54.00 | 31.00 | 23.00 | 10.00 | 12.00
CCC(O)(CC(=O)O)c1cc2n(c(=O)c1CO)Cc1cc3ccccc3nc1-2 (centres unmarked) [Example 4, 3-hydroxy-3-[8-(hydroxymethyl)-9-oxo-9,11-dihydroindolizino [1,2-b]quinolin-7-yl]pentanoic acid] | 80.00 | 75.00 | 79.00 | 69.00 | 38.00 | 21.00 | 5.00
CCc1c2c(nc3ccccc13)-c1cc3c(c(=O)n1C2)COC(=O)CC3(O)CC (centres unmarked) [Example 9, 5,12-diethyl-5-hydroxy-1,4,5,13-tetrahydro-3H,15H-oxepino[3′,4′:6,7]indolizino[1,2-b]quinoline-3,15-dione] | 74.00 | 85.00 | 44.00 | 31.00 | 21.00 | 4.00 | 2.00
CCc1c2c(nc3ccccc13)-c1cc(C(O)(CC)CC(=O)O)c(CO)c(=O)n1C2 (centres unmarked) [Example 10, 3-[12-ethyl-8-(hydroxymethyl)-9-oxo-9,11-dihydroindolizino[1,2-b]quinolin-7-yl]-3-hydroxypentanoic acid] | 71.00 | 76.00 | 77.00 | 52.00 | 29.00 | 18.00 | 4.00
CCC1(O)CC(=O)OCc2c1cc1n(c2=O)Cc2cc3cc4c(cc3nc2-1)OCCO4 (centres unmarked) [Example 11, 8-ethyl-8-hydroxy-2,3,8,9,12,15-hexahydro-10H,13H-[1,4]dioxino [2,3-g]oxepino[3′,4′:6,7]indolizino[1,2-b]quinoline-10,13-dione] | 66.00 | 42.00 | 29.00 | 21.00 | 8.00 | 3.00 | 3.00
